These results are taken from PMC12677607, “Identification of a Pair of Linear or Cyclic Naturally Inspired Bifunctional Lipopeptide Antibiotics That Overcome Antimicrobial Resistance” (Advanced Science, 2025).

The subject of one test is Gram negative bacteria. On the set-up: method as in 2 sources, one per row (each row's own in cited_ref): ref 27 (a number printed in a supplementary file, which may have a reference list of its own: not looked up in the article's list) ||| ref 26 = [26]; PMID 24281661; doi:10.1038/ja.2013.121; 26 S. Kozuma , Y. Hirota‐Takahata , D. Fukuda , N. Kuraya , M. Nakajima , O , A , J. Antibiot. (Tokyo) 2014 , 67 , 237 . 24281661 10.1038/ja.2013.121. The following applies: cited from earlier work; for MIC, anti-Gram negative activity: Figure S20, known paired peptides. The text has this:
All 17 synAQUs were initially assayed for antimicrobial activity against four Gram‐negative bacteria, four Gram‐positive bacteria, and one fungal pathogen.

In test [1] the test system is Klebsiella pneumoniae NCTC 5056. Briefly: microbe, parasite or virus in culture. It counts as cell-based. Particulars: Figure S127a, colistin-resistant strain. The procedure, abridged:
(§1)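 Broth microdilution in LB, run in two independent repeats. Overnight cultures were diluted 5000-fold, except S. aureus at 10000-fold, and mixed with peptide-containing LB (2-fold series, 64 to 0.125 µg mL^−1 before mixing). MIC is the lowest concentration that prevented visible growth.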

The subject of test [2] is Klebsiella pneumoniae CRKP 5452. The experiment in a line: microbe, parasite or virus in culture. It counts as cell-based. The following applies: Figure S127a, wild type. The procedure, abridged: as §1
Test [3] deals with Klebsiella pneumoniae CRKP HS11286. The experiment in a line: microbe, parasite or virus in culture. Format: cell-based. The following applies: Figure S127a. The procedure, abridged: as §1
Test [4] has as its system K. pneumoniae CRKP 5452 PhoQL348Q. The experiment in a line: MIC against colistin-resistant mutant. It counts as cell-based. The following applies: Figure S127a, colistin-resistant mutant from serial passaging. On the procedure:
(§2) All MIC assays were performed two independent times (n = 2) in 96‐well plates using a broth micro‐dilution method. The lowest concentration of that inhibited visible microbial growth was recorded as the MIC value.
(§3) For most of bacterial strains, overnight cultures were diluted 5000‐fold in LB broth. For E. faecium and S. aureus, overnight cultures were diluted 1000‐ and 10000‐fold in LB broth, respectively. 100 µL of diluted cells was mixed with 100 µL of LB broth containing each peptide ranging from 64 to 0.125 µg mL^−1 at 2‐fold serial dilutions.
(§4) Overnight cultures S. aureus USA300 were diluted 10000‐fold in LB broth, and 100 µL of dilute cell suspension was added to 96‐well plates containing 100 µL serially diluted aquicidine C4, telomycin, and daptomycin (with 15 mM CaCl2). Overnight cultures K. pneumoniae CRKP5452 were diluted 5000‐fold in LB broth, and 100 µL of dilute cell suspension was added to 96‐well plates containing 100 µL serially diluted aquicidine L and colistin. After an incubation of 24 h at 37 °C, the MIC value was determined. […] The MIC value was recorded as described above, and the process was repeated daily for 21 days. Experiments were performed two independent times (n = 2).
Single‐nucleotide polymorphisms (SNPs) for telomycin‐, daptomycin‐ or colistin‐resistant mutants were identified using SNIPPY by mapping DNBSEQ‐seq reads to the reference genome of S. aureus USA300 or K. pneumoniae CRKP5452.

The subject of the next test is K. pneumoniae CRKP5452. Briefly: Resistance acquisition by serial passaging. Format: cell-based. The following applies: K. pneumoniae CRKP5452, sub-MIC levels, daily passage for 21 days, n = 2. On the procedure:
as §4

The subject of another test is K. pneumoniae 15580. The experiment in a line: MIC against colistin-resistant strain. It counts as cell-based. The following applies: Figure S127a. On the procedure: as §2, §3
Another test concerns fungi. Particulars: Figure S20, known peptide; cited from earlier work.

Where only a bound is given, the exact number is not on record here.

For the substance Brevicidine, the “MIC, anti-Gram negative activity” value with Gram negative bacteria was 2 to 4 mg/L.

Regarding Colistin [reference compound], in test [1], the “antibacterial activity (MIC) K. pneumoniae NCTC 5056” value is 32 mg/L. The “antibacterial activity (MIC) K. pneumoniae CRKP 5452” value in test [2] came out at 0.125 mg/L. The “antibacterial activity (MIC) K. pneumoniae CRKP HS11286” value in test [3] was determined as 0.125 mg/L. In addition, in test [4], the “antibacterial activity (MIC) K. pneumoniae CRKP 5452 PhoQL348Q” value came out at 4 mg/L. Also, the “increase of MIC during serial passaging” value with K. pneumoniae CRKP5452 is on record as 13.3 fold. Moreover, the “antibacterial activity (MIC) K. pneumoniae 15580” value in the test with K. pneumoniae 15580 was over 64 mg/L.

Keanumycin A: the anti-fungal activity entry with fungi is on record as “Pot ent anti-fungal activity”.

Take Laterocidine: the “MIC, anti-Gram negative activity” value in the test on Gram negative bacteria was 2 to 4 mg/L.

Take pedopeptin B: the anti-Gram-negative activity entry in the test on Gram negative bacteria (in words) is “potent anti‐Gram‐negative activity”.
